Laboratory results reported in patent US20100036088A1, “Selective poly-N-substituted glycine antibiotics” (priority 2008, published 2010).
One block for each molecule: values may come before it. Square brackets hold non-standard residues; d marks the D form. Peptide text beside a SMILES is read from it. Nspe = C[C@H](NCC(=O)O)c1ccccc1; Nlys = NCCCCNCC(=O)O

Assays:
[1] = tested on: A549 lung epithelial cells; experiment: MTS assay, metabolic inhibition
Method: The biocompatibility of selected oligomers with A549 lung epithelial cells was evaluated using the MTS [3-(4,5-dimethylthiazol-2-yl)-5-(3-carboxymethoxyphenyl)-2-(4-sulfophenyl)-2H-tetrazolium] assay.
MTS Assays. A549 carcinoma-derived lung epithelial cells (ATTC CCL-185) were cultured in Ham's F12K media (ATTC, Manassas, Va.). A peptoid solution plate (100 μL/well) was prepared by serial dilution of aqueous peptoid stocks in media. Peptoid solutions were transferred onto a 96-well plate of day-old cell monolayers containing 100 μL/well media with ˜5000 cells/well. MTS reagent (Promega Corporation, Madison, Wis.) (40 μL/well) was added to each well and the plate was incubated at 37° C. for 3 h, after which absorbance at 490 nm was determined. Percent inhibition was determined as [1−(A−Atest blank)/(Acontrol−Ablank)]×100, where A is the absorbance of the test well and Acontrol the average absorbance of wells with cells exposed to media and MTS (no peptoid). Atest blank (media, MTS, and peptoid) and Ablank (media and MTS) were background absorbances measured in the absence of cells. The average of six replicates are reported, and error bars show one standard deviation.

B. subtilis = format: cell-based; details: Table 2; cation-adjusted broth
Method: (§1) Antibacterial assays. MICs were determined according to CLSI M7-A6 protocols in a 96-well microtiter plate. In test wells, 50 μL bacterial inoculum (5×10^5 CFU/ml) in Mueller-Hinton broth (MHB) was added to 50 μL peptoid solution in MHB (prepared by 1:2 serial dilutions). Positive controls contained 50 μL inoculum and 50 μL MHB without peptoid. […] MIC values reported were reproducible between three independent experimental replicates, each consisting of two parallel trials. Broad-spectrum antimicrobial susceptibility testing was performed against BSL2 pathogens by Nova Biologicals, Inc. (Conroe, Tex.).
(§2) Screening antibacterial assays. MICs were determined in 96-well microtiter plates in accordance with CLSI M7-A6 protocols. Peptoid solutions with 50 μL total volume were prepared using 2:1 serial dilutions. 50 μL of bacteria inoculum (1×10^6 CFU/mL) prepared in cation-adjusted Mueller-Hinton broth (CAMHB) was added to test wells. Control wells contained 100 μL MHB (no growth) or 50 μL inoculums with 50 μL MHB with no peptoid. […] Reported values were reproducible over three experiments, each containing two parallel trials.

E. coli = format: cell-based; details: Table 2; cation-adjusted broth
Method: as §1, §2

[2] = tested on: Candida albicans (SC5314); format: cell-based, C. albicans; details: Table 2
Method: Additionally, in order to characterize possible antifungal activity, a library of alkylated compounds was tested against C. albicans, a representative fungal strain.
Antifungal Assays. MICs were determined using the broth microdilution assay given by CLSI M27-A2 protocols. Candida albicans (SC5314) was grown on Sabouraud dextrose agar for 24 hours at 30° C. Cells were suspended in 0.145 M saline, and the cell concentration was adjusted to 3×10^6 cells/mL. After adjusting the cell concentration, the suspension was diluted 1:1000 with RPMI 1640 (with L-glutamine and without sodium bicarbonate, Invitrogen) buffered with 0.145 M 3-(N-morpholino) propanesulfonic acid (MOPS). Two-fold serial dilutions of peptoids, peptides, and amphotericin B (Calbiochem) were prepared in RPMI 1640 and mixed with an equal volume of the cell suspension in 96-well plates. The final testing concentrations for the peptoids and peptides were 0.20 to 100 μM, and concentrations for amphotericin B were 0.031 to 16 μM. Growth controls and sterility controls were also included. Plates were incubated for 48 hours at 35° C., and growth of C. albicans was inspected visually to determine the MICs. The MIC for each compound was defined as the lowest concentration with no visible fungal growth. Experiments were performed in duplicate on two separate days.

[3] = tested on: both strains of E. faecalis; format: cell-based; details: range over strains
Method: The activities of ampetoids tested against BSL2 Gram-positive strains, however, compared very favorably to those of pexiganan.
Broad-spectrum antibacterial assays. MICs of compounds were determined by microdilution procedure in Mueller-Hinton broth (MHB) in accordance with CLSI M7-A6 protocols in a manner similar to that described for the screen antibacterial assays. Inoculated microtiter plates were incubated at 35° C. for 24 hours prior to the result being recorded. Four ATCC strains that were used as standards are recommended by CLSI: Pseudomonas aeruginosa ATCC 27853, Escherichia coli ATCC 25922, Staphylococcus aureus ATCC 29213 and Enterococcus faecalis ATCC 29212. Other strains from the ATCC collection include Proteus vulgaris ATCC 49132, Proteus mirabilis ATCC 35659, Klebsiella pneumoniae ATCC 33495, Enterobacter aerogenes ATCC 35029 and Serratia marcescens ATCC 13880. S. aureus NRS100 (COL) is a well characterized methicillian-resistant S. aureus (MRSA) strain. The strains S. aureus VAN1 and S. aureus VAN2, vancomycin-resistant MRSA strains that were isolated in Michigan and Pennsylvania, were the first vancomycin-resistant strains clinically isolated. S. aureus NRS119 and S. aureus NRS120 are linezolid-resistant isolates from the Network on Antimicrobial Resistance in S. aureus (NARSA) collection. E. faecalis 99 and E. faecium 106 are vancomycin-resistant enterococcal strains.

[4] = tested on: Staphyloccus aureus (ATCC #25923); experiment: Murine intraperitoneal infection model; format: in vivo; details: mouse, 4 mg/kg I.P.; eleven mice treated with 1-Nhis6,12
Method: Using a murine peritoneal injection mouse model, the ability of peptoids to treat infection was evaluated in vivo. The results from three separate studies of peptoid 1 and two of peptoid 1-Nhis6,12 against saline treated controls are shown in FIG. 7. The horizontal line represents the geometric mean of each population.
Murine intraperitoneal infection model. Bacteria was prepared by inoculating 5 mL of MHB with a single colony of Staphyloccus aureus (ATCC #25923) from a freshly streaked plate and grown overnight at 37 C. The following morning, the bacteria was subcultured by diluting 1/3 in MHB and grown for approximately 1.5 hours. The bacteria were then diluted 10-fold in a 5% mucin in PBS solution and thoroughly mixed. A sample was reserved to later determine the amount of bacteria the mice received.
Mice were weighed, marked, and injected I.P. with 200 uL of S. aureus inoculum. Four hours post infection, mice were treated I.P. with 4 mg/kg peptoid (˜100 ug per mouse). The infection is allowed to proceed overnight. Mice were euthanized by CO2 asphyxiation after 24 hours, and the peritoneal cavity was exposed and lavaged with 5 mL PBS. The lavage was mixed and reserved on ice until plating. […] Colonies were counted the following day, and the CFU/ml of each sample was calculated. […]

- ID10 relative to that of pexiganan [1]: 10 times
SMILES: C[C@@H](c1ccccc1)N(CC(N)=O)C(=O)CN(C(=O)CN(CCCCN)C(=O)CN(C(=O)CN(C(=O)CN(CCCCN)C(=O)[C@@H]1CCCN1C(=O)CN(C(=O)CN(CCCCN)C(=O)CN(C(=O)CN(C(=O)CNCCCCN)[C@@H](C)c1ccccc1)[C@@H](C)c1ccccc1)[C@@H](C)c1ccccc1)[C@@H](C)c1ccccc1)[C@@H](C)c1ccccc1)[C@@H](C)c1ccccc1 [1-Pro6, H-Nlys-Nspe-Nspe-Nlys-Nspe-L-Pro-(Nlys-Nspe-Nspe)2-NH2] (H-[Nlys][Nspe][Nspe][Nlys][Nspe]P[Nlys][Nspe][Nspe][Nlys][Nspe][Nspe]-NH2)

SMILES: C[C@@H](c1ccccc1)N(CC(N)=O)C(=O)CN(C(=O)CN(CCCCN)C(=O)CN(C(=O)CN(C(=O)CN(CCCCN)C(=O)CN(C(=O)CN(C(=O)CN(CCCCN)C(=O)CN(C(=O)CN(C(=O)CNCCCCN)[C@@H](C)c1ccccc1)[C@@H](C)c1ccccc1)[C@@H](C)c1ccccc1)[C@@H](C)c1ccccc1)[C@@H](C)c1ccccc1)[C@@H](C)c1ccccc1)[C@@H](C)c1ccccc1 [compound 1, H-(NLys-Nspe-Nspe)4-NH2] (H-[Nlys][Nspe][Nspe][Nlys][Nspe][Nspe][Nlys][Nspe][Nspe][Nlys][Nspe][Nspe]-NH2)
- B. subtilis MIC (B. subtilis): 1.6 µM
- E. coli MIC (E. coli): 6.3 µM
- C. albicans MIC [2]: 6.3 µM
- MIC against both strains of E. faecalis [3]: 4 to 8 µg/mL
- mice that died prematurely during the exposure period [4]: no mice
